Molecules are shown by their SMILES. Where only a bound is given, the exact number is not on record here.

The test system of assay [1] is Danio rerio embryo. Kind of assay: BMC10 any morphological effect or mortality at 120 hpf; higher = less toxic.
Assay [2] has as its system HL-60. Kind of assay: Cell Health Index (toxicity pseudo-probability over dose series) (index 0-1); higher = more cytotoxic / cell stress.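 Note: HL-60 cells exposed 4 h at 37 °C to ten threefold dilutions spanning 5 nM to 100 µM, multiparametric flow cytometry features scored by machine-learning classification.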

With `N#C[C@@]1(c2ccc3c(N)ncnn23)O[C@H](CO)[C@@H](O)[C@H]1O`, the “BMC10 any morphological effect or mortality” value in assay [1] was greater than 100 µM. For the same compound, the “Cell Health Index” value in assay [2] is 0.185.
On the same counts, the results for `O=c1c(O)cc([C@H]2Oc3cc(O)cc(O)c3C[C@H]2O)cc2c([C@H]3Oc4cc(O)cc(O)c4C[C@H]3O)cc(O)c(O)c12` [Theaflavin] are greater than 100 µM and 0.752.
Take `Cc1cc(C)c(Nc2ccnc(Nc3ccc(C#N)cc3)n2)c(C)c1` [Dapivirine]: in assay [1], the “BMC10 any morphological effect or mortality” value is greater than 100 µM. Also, in assay [2], the “Cell Health Index” value was 0.836.
With `c1ccc(CNCc2ccc(CN3CCCNCCNCCCNCC3)cc2)nc1` [AMD 3465 parent], the “BMC10 any morphological effect or mortality” value in assay [1] is greater than 100 µM. Moreover, in assay [2], the “Cell Health Index” value came out at 0.232.
For the compound `Cc1nnc(C(C)C)n1[C@@H]1C[C@H]2CC[C@@H](C1)N2CC[C@H](NC(=O)C1CCC(F)(F)CC1)c1ccccc1` [Maraviroc], the “BMC10 any morphological effect or mortality” value in assay [1] is greater than 100 µM. Also, in assay [2], the “Cell Health Index” value worked out at 0.155.
Regarding `COc1cc2c(cc1Cc1cccc(Cl)c1F)c(=O)c(C(=O)O)cn2[C@H](CO)C(C)C` [Elvitegravir], in assay [1], the “BMC10 any morphological effect or mortality” value was greater than 100 µM. For the same compound, the “Cell Health Index” value in assay [2] stood at 0.339.
Taken in the same sequence, the figures for `CC1(C)CC[C@]2(C(=O)O[C@@H]3O[C@H](CO)[C@@H](O)[C@H](O)[C@H]3O)CC[C@]3(C)C(=CC[C@@H]4[C@@]5(C)CC[C@H](O[C@@H]6O[C@H](C(=O)O)[C@@H](O)[C@H](O)[C@H]6O[C@@H]6O[C@H](CO)[C@@H](O)[C@H](O)[C@H]6O)C(C)(C)[C@@H]5CC[C@]43C)[C@@H]2C1` [Ginsenoside Ro] were greater than 100 µM and 0.229.
Taken in the same sequence, the figures for `CC(=O)OCC(CCn1cnc2cnc(N)nc21)COC(C)=O` [Famciclovir] were greater than 100 µM and 0.254.
On the same counts, the results for `COc1ccc([C@@H]2CC(=O)c3c(O)cc(O[C@@H]4O[C@H](CO[C@@H]5O[C@@H](C)[C@H](O)[C@@H](O)[C@H]5O)[C@@H](O)[C@H](O)[C@H]4O)cc3O2)cc1O` [Hesperidin] are greater than 100 µM and 0.204.
With `CC(=O)SC[C@H](NC(=O)CC[C@H](N)C(=O)O)C(=O)NCC(=O)O` [S-acetyl-L-Glutathione], the “BMC10 any morphological effect or mortality” value in assay [1] is greater than 100 µM. Also, the “Cell Health Index” value in assay [2] turned out to be 0.168.
`CCCC(CCC)C(=O)O` [Valproic acid]: the “BMC10 any morphological effect or mortality” value in assay [1] was greater than 100 µM. In addition, the “Cell Health Index” value in assay [2] came to 0.188.
Taken in the same sequence, the figures for `COC(=O)N[C@H](C(=O)N1CCC[C@H]1c1nc2cc([C@H]3CC[C@H](c4cc5nc([C@@H]6CCCN6C(=O)[C@@H](NC(=O)OC)[C@@H](C)OC)[nH]c5cc4F)N3c3cc(F)c(N4CCC(c5ccc(F)cc5)CC4)c(F)c3)c(F)cc2[nH]1)[C@@H](C)OC` [Pibrentasvir] were greater than 100 µM and 0.268.
On the same counts, the results for `Nc1nc(=O)c2ncn(CCC(CO)CO)c2[nH]1` [Penciclovir] are greater than 100 µM and 0.126.
Taken in the same sequence, the figures for `O=C(O)C[C@@H]1C(=O)O[C@H]2[C@@H]3OC(=O)c4cc(O)c(O)c(O)c4-c4c(cc(O)c(O)c4O)C(=O)OC[C@H]2O[C@@H](OC(=O)c2cc(O)c(O)c(O)c2)[C@@H]3OC(=O)c2cc(O)c(O)c3c2[C@H]1[C@H](O)C(=O)O3` [Chebulagic acid] were greater than 100 µM and 0.874.
As to `Nc1nc(=O)n([C@@H]2CS[C@H](CO)O2)cc1F` [Emtricitabine], the “BMC10 any morphological effect or mortality” value in assay [1] was greater than 100 µM. For the same compound, the “Cell Health Index” value in assay [2] amounted to 0.158.
In the case of `CC(=O)N[C@H]1[C@H]([C@H](O)[C@H](O)CO)OC(C(=O)O)=C[C@@H]1NC(=N)N` [Zanamivir], the “BMC10 any morphological effect or mortality” value in assay [1] was greater than 100 µM. Besides, in assay [2], the “Cell Health Index” value came out at 0.22.
Turning to `CCO.C[C@H]1c2cccc(O)c2C(=O)C2=C(O)[C@]3(O)C(=O)C(C(N)=O)=C(O)[C@@H](N(C)C)C3[C@@H](O)C21.C[C@H]1c2cccc(O)c2C(=O)C2=C(O)[C@]3(O)C(=O)C(C(N)=O)=C(O)[C@@H](N(C)C)C3[C@@H](O)C21.Cl.Cl.O` (stereo not given in full) [Doxycycline], the “BMC10 any morphological effect or mortality” value in assay [1] is greater than 100 µM. In addition, in assay [2], the “Cell Health Index” value was 0.591.
On the same counts, the results for `O=c1c(O[C@@H]2O[C@H](CO)[C@@H](O)[C@H](O)[C@H]2O)c(-c2ccc(O)c(O)c2)oc2cc(O)cc(O)c12` [Isoquercetin] are greater than 100 µM and 0.31.
On the same counts, the results for `CC(C)(C)C(=O)OCOP(=O)(COCCn1cnc2c(N)ncnc21)OCOC(=O)C(C)(C)C` [Adefovir dipivoxil] are greater than 100 µM and 0.258.
Regarding `O=C([O-])P(=O)([O-])[O-].[Na+].[Na+].[Na+]` [Foscarnet], in assay [1], the “BMC10 any morphological effect or mortality” value is greater than 100 µM. For the same compound, the “Cell Health Index” value in assay [2] was found to be 0.13.

Values taken from the supplement of paper PMC11821682.
